This passage reports TGI results from PubChem BioAssay (NCI).

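Values below derive from 48-hour exposures of cells grown in 96-well plates, with endpoints linearly interpolated between the two concentrations bracketing the appropriate inhibition level. TGI is the concentration that stops growth completely.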

Some test systems named below: SN12C renal; SNB-75 CNS; HT29 colon; OVCAR-5 ovarian; NCI-H23 lung; T-47D breast; SR leukemia; 786-0 renal; UO-31 renal; MDA-N; PC-3 prostate.
Holding throughout (assay): NCI anticancer screen, dose series, 48 h

Consider `CO[C@H]1O[C@@H]2CO[C@@H](c3ccccc3)O[C@H]2[C@@H]2C/C=C\CCC[C@@]12O`, for which the TGI in the assay with SN12C renal was 32.5 µM; in the assay on SNB-75 CNS, above 100 µM; with HT29 colon it was 40.3 µM; in the assay on OVCAR-5 ovarian, 52.5 µM; with NCI-H23 lung, 52.7 µM; with T-47D breast, above 100 µM. Besides, the TGI in the assay on SR leukemia is 49.4 µM; in the assay with 786-0 renal it was 33 µM; in the assay on UO-31 renal, above 100 µM; in the assay on MDA-N, 60.8 µM; in the assay on PC-3 prostate, 77.1 µM.
For the molecule `O=[N+]([O-])c1ccc2oc(=Nc3ccccc3)c(Nc3ccccc3)nc2c1`, the TGI with SN12C renal was above 100 µM; in the assay on SNB-75 CNS, 79.6 µM; in the assay with HT29 colon it was above 100 µM; with OVCAR-5 ovarian, above 100 µM; in the assay with NCI-H23 lung it was above 100 µM; in the assay with T-47D breast, above 100 µM. Besides, the TGI with SR leukemia is above 100 µM; in the assay with 786-0 renal, 76.6 µM; in the assay on UO-31 renal, above 100 µM; in the assay with MDA-N it was above 100 µM; in the assay with PC-3 prostate, above 100 µM.
Regarding `CCN(CC)CCCNC(=O)c1cc2cc(NC(=O)c3cc4cc([N+](=O)[O-])ccc4[nH]3)ccc2[nH]1`, the TGI in the assay on SN12C renal, with SNB-75 CNS, with HT29 colon, in the assay on OVCAR-5 ovarian, with NCI-H23 lung and in the assay on T-47D breast was above 100 µM throughout. Moreover, the TGI in the assay on SR leukemia, in the assay on 786-0 renal, in the assay with UO-31 renal, with MDA-N and in the assay on PC-3 prostate was above 100 µM each time.
With `Cn1c([C@H](C#N)C(=O)c2cc(O)ccc2[N+](=O)[O-])nc2ccccc21`, the TGI in the assay on SN12C renal, in the assay with SNB-75 CNS, with HT29 colon, in the assay on OVCAR-5 ovarian, in the assay on NCI-H23 lung and in the assay on T-47D breast was above 100 µM in each case. The TGI in the assay with SR leukemia, with 786-0 renal, in the assay with UO-31 renal, in the assay on MDA-N and in the assay on PC-3 prostate was above 100 µM each time.
Turning to `O=CC(O)C(O)C(O)C1CNC(=S)O1` (stereo not given), the TGI in the assay on SN12C renal, in the assay with SNB-75 CNS, in the assay with HT29 colon, in the assay on OVCAR-5 ovarian, in the assay with NCI-H23 lung and with T-47D breast was above 100 µM each time. The TGI with SR leukemia, with 786-0 renal, in the assay on UO-31 renal, with MDA-N and in the assay on PC-3 prostate was above 100 µM each time.
In the case of `O=C(Sc1c(-c2ccccc2)c(=O)n(-c2ccccc2)c(=S)n1-c1ccccc1)c1cccs1`, the TGI in the assay on SN12C renal, in the assay on SNB-75 CNS, with HT29 colon, with OVCAR-5 ovarian, in the assay with NCI-H23 lung and in the assay with T-47D breast was above 100 µM each time. Further, the TGI with SR leukemia, with 786-0 renal, in the assay with UO-31 renal, in the assay with MDA-N and in the assay on PC-3 prostate was above 100 µM throughout.
With `CC(C)=CCOc1cc(NC(=S)c2ccsc2C)ccc1Cl`, the TGI was above 100 µM with SN12C renal; 66.4 µM in the assay on SNB-75 CNS; above 100 µM in the assay on HT29 colon; above 100 µM in the assay on OVCAR-5 ovarian; above 100 µM in the assay with NCI-H23 lung; above 100 µM in the assay on T-47D breast. The TGI with SR leukemia was 84.4 µM; in the assay with 786-0 renal, above 100 µM; with UO-31 renal, above 100 µM; with MDA-N, above 100 µM; in the assay with PC-3 prostate, above 100 µM.
For the molecule `C=C[C@@]1(O)CCCC[C@@H]1CC(Sc1ccccc1)Sc1ccccc1`, the TGI with SN12C renal worked out at 34.3 µM; in the assay with SNB-75 CNS it was 27.8 µM; in the assay with HT29 colon, 36.9 µM; in the assay on OVCAR-5 ovarian it was 32.9 µM; in the assay on NCI-H23 lung, 32.7 µM; in the assay on T-47D breast it was 27.8 µM. Besides, the TGI was above 100 µM with SR leukemia; 59.5 µM in the assay on 786-0 renal; 32.2 µM in the assay on UO-31 renal; 44.8 µM with MDA-N; 29.1 µM with PC-3 prostate.
Take `O=C(O)CC[P+](c1ccccc1)(c1ccccc1)c1ccccc1`: the TGI in the assay on SN12C renal was 54.7 µM; in the assay with SNB-75 CNS it was above 100 µM; in the assay with HT29 colon, above 100 µM; in the assay with OVCAR-5 ovarian it was above 100 µM; in the assay on NCI-H23 lung, above 100 µM; with T-47D breast, above 100 µM. Moreover, the TGI in the assay with SR leukemia, with 786-0 renal, in the assay with UO-31 renal, in the assay on MDA-N and in the assay with PC-3 prostate was above 100 µM each time.
For the molecule `Cc1ccc(NC2=NCCO2)c2c1CCC2`, the TGI in the assay on SN12C renal was above 100 µM; in the assay with SNB-75 CNS it was 84.5 µM; with HT29 colon it was above 100 µM; in the assay on OVCAR-5 ovarian, above 100 µM; in the assay with NCI-H23 lung it was above 100 µM; in the assay on T-47D breast it was above 100 µM. In addition, the TGI was 53.3 µM in the assay on SR leukemia; above 100 µM in the assay on 786-0 renal; above 100 µM in the assay on UO-31 renal; 38.5 µM in the assay on MDA-N; above 100 µM in the assay with PC-3 prostate.
In the case of `CCCC1C(=O)Nc2cccc3ncn(c23)C1=O` (stereo not given), the TGI with SN12C renal, in the assay on SNB-75 CNS, in the assay on HT29 colon, in the assay on OVCAR-5 ovarian, in the assay with NCI-H23 lung and in the assay with T-47D breast was above 100 µM in each case. For the same molecule, the TGI with SR leukemia, in the assay with 786-0 renal, with UO-31 renal, in the assay with MDA-N and in the assay with PC-3 prostate was above 100 µM throughout.
Take `CN(C)c1ccc(/C=C/C(=O)N[C@@H]2C(=O)N3[C@@H]2SC(C)(C)[C@@H]3C(=O)O)cc1`: the TGI in the assay with SN12C renal, with SNB-75 CNS, in the assay on HT29 colon, in the assay on OVCAR-5 ovarian, in the assay on NCI-H23 lung and in the assay on T-47D breast was above 100 µM throughout. Besides, the TGI in the assay with SR leukemia, in the assay on 786-0 renal, in the assay on UO-31 renal, in the assay with MDA-N and in the assay on PC-3 prostate was above 100 µM in each case.
For `C[N+](C)(C)C=Nc1cccc2c1CCCC2`, the TGI with SN12C renal, with SNB-75 CNS, in the assay with HT29 colon, in the assay with OVCAR-5 ovarian, in the assay with NCI-H23 lung and in the assay on T-47D breast was above 100 µM each time. Moreover, the TGI in the assay on SR leukemia, in the assay on 786-0 renal, with UO-31 renal, with MDA-N and in the assay with PC-3 prostate was above 100 µM in each case.
As for `NC(Cc1c[nH]c2cc([N+](=O)[O-])ccc12)C(=O)O` (stereo not given), the TGI in the assay with SN12C renal, in the assay with SNB-75 CNS, with HT29 colon, with OVCAR-5 ovarian, in the assay on NCI-H23 lung and in the assay with T-47D breast was above 100 µM in each case. The TGI in the assay on SR leukemia, in the assay with 786-0 renal, with UO-31 renal, with MDA-N and in the assay with PC-3 prostate was above 100 µM each time.
Turning to `Oc1ccccc1C1C=C(c2ccccc2)NC(N2CCCCC2)=C1c1nc2ccccc2[nH]1` (stereo not given), the TGI in the assay with SN12C renal turned out to be 29.7 µM; in the assay with SNB-75 CNS, 18.3 µM; in the assay with HT29 colon, 29.3 µM; in the assay with OVCAR-5 ovarian it was 32 µM; in the assay on NCI-H23 lung, 30.3 µM; with T-47D breast it was 40.4 µM. Further, the TGI is 35.3 µM in the assay on SR leukemia; 25.7 µM in the assay with 786-0 renal; 23.7 µM with UO-31 renal; 26.6 µM with MDA-N; 24.5 µM with PC-3 prostate.
On to `Cc1nnc2n(c1=O)CCN2C`, for which the TGI with SN12C renal, with SNB-75 CNS, in the assay on HT29 colon, in the assay on OVCAR-5 ovarian, with NCI-H23 lung and with T-47D breast was above 100 µM in each case. In addition, the TGI with SR leukemia, with 786-0 renal, in the assay with UO-31 renal, with MDA-N and in the assay on PC-3 prostate was above 100 µM throughout.
In the case of `Cc1ccc(S(=O)(=O)[C@@H](Cl)[C@H]2N=C(Cl)NN=C2c2ccccc2)cc1`, the TGI was 54 µM in the assay with SN12C renal; 97.4 µM in the assay with SNB-75 CNS; above 100 µM in the assay on HT29 colon; above 100 µM in the assay on OVCAR-5 ovarian; 63.1 µM in the assay on NCI-H23 lung; above 100 µM in the assay with T-47D breast. The TGI was above 100 µM in the assay on SR leukemia; 85 µM with 786-0 renal; 35.7 µM in the assay with UO-31 renal; 74.4 µM in the assay with MDA-N; 39.5 µM in the assay on PC-3 prostate.
For the molecule `CC(C)(C)CC(C)(C)NC(=S)NO`, the TGI with SN12C renal, in the assay with SNB-75 CNS, in the assay with HT29 colon, in the assay on OVCAR-5 ovarian, in the assay on NCI-H23 lung and in the assay with T-47D breast was above 100 µM each time. For the same molecule, the TGI in the assay on SR leukemia, in the assay with 786-0 renal, in the assay with UO-31 renal, with MDA-N and in the assay on PC-3 prostate was above 100 µM each time.
Take `O=S(=O)(O)c1cccc2cccc(N=Nc3c(O)ccc4ccccc34)c12`: the TGI in the assay with SN12C renal, in the assay on SNB-75 CNS, in the assay with HT29 colon, with OVCAR-5 ovarian, in the assay with NCI-H23 lung and with T-47D breast was above 100 µM in each case. The TGI with SR leukemia, in the assay with 786-0 renal, with UO-31 renal, with MDA-N and with PC-3 prostate was above 100 µM each time.
Take `CCOc1ccc(N=NC2C(=O)N(C(=O)CC(=O)Nc3ccccc3)N=C2C)cc1` (stereo not given): the TGI with SN12C renal, in the assay with SNB-75 CNS, in the assay with HT29 colon, with OVCAR-5 ovarian, in the assay on NCI-H23 lung and in the assay on T-47D breast was above 100 µM each time. Besides, the TGI in the assay on SR leukemia was above 100 µM; with 786-0 renal, above 100 µM; in the assay on UO-31 renal, above 100 µM; in the assay with MDA-N it was 21.5 µM; in the assay on PC-3 prostate it was above 100 µM.
